{"source": "patent US20240423981A1", "about": "“TREATMENT OF HCM WITH PYRIMIDINEDIONE COMPOUNDS” (MyoKardia, Inc., priority 2017, published 2024)", "key": {"[1]": {"tested_on": "subjects with symptomatic HCM and LVOT obstruction", "assay": "Phase 2 open-label pilot study Pioneer-HCM-A (Cohort A)", "format": "in vivo, human", "conditions": "for Lateral e′ Week 12: baseline 6.9 ± 1.9; for E/e′ Week 12: baseline 12.9 ± 3.3", "from_the_text": "This is a phase 2 open-label pilot study to evaluate the efficacy, PK, PD, safety, and tolerability of Compound 1 in subjects with symptomatic HCM and LVOT obstruction. Approximately 10 adult subjects with symptomatic HCM, a resting LVOT gradient ≥30 mm Hg, and post-exercise peak LVOT gradient ≥50 mm Hg will be enrolled. The study will have a 12-week treatment phase and a 4-week washout phase (FIG. 3).\nAt Screening, subjects will undergo transthoracic echocardiography (TTE) in the supine or left lateral decubitus position. In addition to a standardized complete TTE, both resting instantaneous peak LVOT gradient (baseline) and provoked peak LVOT gradient will be collected. Subjects will then undergo a standard symptom-limited exercise test (hemodynamic stress echocardiography). Subjects will be assessed systematically for symptoms of dyspnea and/or angina. Instantaneous peak LVOT gradient will be assessed immediately post-exercise by TTE.\nOn Day 1, resting TTE will be performed, blood samples will be drawn for PK, and subjects will have an assessment of pVO2, VE/VCO2, and other variables via cardiopulmonary exercise testing (CPET). After CPET, subjects will be dosed with open-label oral Compound 1 at the investigational site and will be observed for at least 1 hour after dosing, with assessment of vital signs and ECGs at 1 hour postdose. Subjects will then be supplied with Compound 1 sufficient for QD dosing at home.\nSubjects will be evaluated at the investigational site at Weeks 1, 2, 3, 4, 5, 6, 7, 8, 12, and 16. At each of these visits, resting TTE will be performed and blood samples will be drawn for PK. On study visit days, study medication will be administered at the investigational site in order to collect blood samples for PK about 2 hours prior to dosing. At Weeks 4, 12, and 16, hemodynamic stress echocardiography will be performed and peak LVOT gradient will be assessed. CPET will be conducted between Weeks 10 and 12 (inclusive).\nThe Compound 1 starting dose will be 10 mg for subjects who weigh […] 60 kg and 15 mg for subjects who weigh >60 kg. At the end of Week 4 (Day 28), each subject's LVEF will be evaluated, and the subject's dose may be increased, decreased, or remain unchanged based on the predetermined criteria in Table 6, in consultation between the investigator and the medical monitor. If Compound 1 plasma concentration exceeds 750 ng/mL at Week 2, no dose increase is allowed, regardless of LVEF data at Week 4; however, dose decrease per LVEF data is allowed in this circumstance. The subject will subsequently receive that dose from Week 5 through Week 12.\nThe following results were obtained generally following the procedures described in Example 3. Each subject in the following trials discontinued β-blocker, calcium-channel blocker, and/or disopyramide therapy at least 14 days prior to the screening visit."}, "healthy volunteers": {"tested_on": "healthy volunteers", "assay": "Adverse events in healthy volunteers of the Phase 1 trials", "format": "in vivo, human", "procedure": "(§1) Three clinical studies have investigated the safety and tolerability of Compound 1 to date; conduct of 2 studies has completed and 1 study is ongoing. A double-blind, placebo-controlled, single ascending-dose study (SAD) (Compound 1-002) was conducted in healthy men. Subjects received single doses ranging from 1 mg to 48 mg. Conduct of an open-label sequential-group SAD study in subjects with clinically stable HCM (Compound 1-001) is also complete; single doses of up to 144 mg were administered. In addition, a double-blind, placebo-controlled, multiple ascending-dose (MAD) study (Compound 1-003) is being conducted in which healthy adult subjects have received multiple doses of Compound 1 up to 25 mg once daily (QD) for up to 28 days."}, "healthy adult subjects": {"tested_on": "healthy adult subjects", "assay": "Study Compound 1-003: multiple ascending-dose (MAD) trial in healthy volunteers", "format": "in vivo, human", "procedure": "as §1\nIn Study Compound 1-003, 4 cohorts of healthy adult subjects have been dosed, each scheduled to dose for 28 days. […] In cohort 3, 3 of 12 subjects who received blinded treatment (either Compound 1 12.5 mg or placebo QD) had diarrhea and/or abdominal cramps. One of these subjects was discontinued due to recurrence of diarrhea upon rechallenge, and the other 2 subjects were successfully restarted on study medication. The investigator considered these gastrointestinal AEs either mild or moderate in severity and likely related to study medication.\nDosing in cohort 4 was stopped on Day 25 by the investigator, because 5 of 12 subjects who received blinded treatment (either Compound 1 25 mg or placebo QD) achieved the predefined stopping criterion for dose ascension of ≥20% reduction in LVEF. All subjects remained asymptomatic."}, "smooth muscle myosin": {"target": "smooth muscle myosin (Homo sapiens, UniProt P35749)", "sequence (P35749 whole entry)": "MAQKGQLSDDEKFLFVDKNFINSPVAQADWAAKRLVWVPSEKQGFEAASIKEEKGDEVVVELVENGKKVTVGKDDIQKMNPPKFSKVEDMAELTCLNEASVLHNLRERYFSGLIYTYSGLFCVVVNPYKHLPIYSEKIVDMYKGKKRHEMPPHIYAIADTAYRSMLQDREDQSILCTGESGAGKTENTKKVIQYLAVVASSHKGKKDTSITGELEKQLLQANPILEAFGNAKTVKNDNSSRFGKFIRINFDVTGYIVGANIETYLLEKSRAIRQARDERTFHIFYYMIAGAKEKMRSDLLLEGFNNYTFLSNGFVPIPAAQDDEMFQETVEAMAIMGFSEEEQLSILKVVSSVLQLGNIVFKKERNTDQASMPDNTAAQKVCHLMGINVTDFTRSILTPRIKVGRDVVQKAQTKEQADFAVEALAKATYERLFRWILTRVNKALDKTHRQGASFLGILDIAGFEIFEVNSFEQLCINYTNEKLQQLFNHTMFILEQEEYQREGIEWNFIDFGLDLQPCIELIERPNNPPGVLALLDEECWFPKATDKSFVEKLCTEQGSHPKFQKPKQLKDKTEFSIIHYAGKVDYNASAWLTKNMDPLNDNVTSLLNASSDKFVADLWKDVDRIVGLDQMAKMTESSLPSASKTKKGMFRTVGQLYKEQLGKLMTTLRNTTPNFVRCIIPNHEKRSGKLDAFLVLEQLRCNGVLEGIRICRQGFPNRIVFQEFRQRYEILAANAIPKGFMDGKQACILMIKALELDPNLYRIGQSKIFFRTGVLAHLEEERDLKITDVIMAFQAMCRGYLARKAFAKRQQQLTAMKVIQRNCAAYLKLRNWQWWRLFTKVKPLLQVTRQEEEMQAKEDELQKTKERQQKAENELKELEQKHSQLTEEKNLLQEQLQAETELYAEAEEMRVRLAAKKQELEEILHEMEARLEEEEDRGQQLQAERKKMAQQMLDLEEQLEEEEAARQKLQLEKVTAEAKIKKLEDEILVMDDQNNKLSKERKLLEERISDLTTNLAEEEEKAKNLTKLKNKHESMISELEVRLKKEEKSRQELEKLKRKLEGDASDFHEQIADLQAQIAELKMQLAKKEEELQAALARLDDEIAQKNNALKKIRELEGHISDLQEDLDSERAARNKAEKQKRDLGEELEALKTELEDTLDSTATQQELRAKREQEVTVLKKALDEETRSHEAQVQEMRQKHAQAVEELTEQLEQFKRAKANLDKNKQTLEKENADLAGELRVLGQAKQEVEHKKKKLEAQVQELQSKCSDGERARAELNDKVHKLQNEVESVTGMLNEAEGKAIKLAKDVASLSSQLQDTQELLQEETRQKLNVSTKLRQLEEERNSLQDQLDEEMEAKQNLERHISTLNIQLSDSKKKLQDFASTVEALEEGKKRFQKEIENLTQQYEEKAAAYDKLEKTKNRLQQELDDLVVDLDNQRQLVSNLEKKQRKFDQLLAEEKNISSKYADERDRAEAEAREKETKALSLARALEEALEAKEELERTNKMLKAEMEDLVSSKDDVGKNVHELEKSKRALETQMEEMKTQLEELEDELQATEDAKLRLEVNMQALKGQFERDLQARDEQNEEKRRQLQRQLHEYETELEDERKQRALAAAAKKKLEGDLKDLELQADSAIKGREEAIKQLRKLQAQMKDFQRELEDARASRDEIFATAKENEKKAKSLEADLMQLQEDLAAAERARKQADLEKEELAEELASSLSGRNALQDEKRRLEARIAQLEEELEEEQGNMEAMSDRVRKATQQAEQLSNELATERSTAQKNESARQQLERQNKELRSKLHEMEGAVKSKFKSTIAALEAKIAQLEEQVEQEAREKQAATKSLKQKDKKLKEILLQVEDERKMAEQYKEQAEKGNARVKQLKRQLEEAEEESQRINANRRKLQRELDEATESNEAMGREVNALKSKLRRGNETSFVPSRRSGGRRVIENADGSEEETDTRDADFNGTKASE", "sequence (P60660 whole entry partner)": "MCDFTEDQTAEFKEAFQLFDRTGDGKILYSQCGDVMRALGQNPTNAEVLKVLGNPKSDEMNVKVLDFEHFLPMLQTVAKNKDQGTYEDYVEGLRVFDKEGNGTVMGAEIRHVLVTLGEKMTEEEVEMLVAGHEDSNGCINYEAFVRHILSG", "sequence (P24844 whole entry partner)": "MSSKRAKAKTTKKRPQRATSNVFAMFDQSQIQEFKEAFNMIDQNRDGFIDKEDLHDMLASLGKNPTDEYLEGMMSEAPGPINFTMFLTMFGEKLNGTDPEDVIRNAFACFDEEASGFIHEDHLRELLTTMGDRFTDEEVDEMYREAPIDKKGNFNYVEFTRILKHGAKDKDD", "assay": "Biochemical activity against smooth muscle myosin"}, "[2]": {"tested_on": "healthy volunteers and HCM patients", "assay": "Phase 1 program summary (three Phase 1 studies)", "format": "in vivo, human", "procedure": "as §1"}, "[3]": {"conditions": "Cohort A (10-15 mg/day), N = 10, mean ± SD"}, "[4]": {"conditions": "Cohort A, baseline to Week 12, n 10"}, "[5]": {"conditions": "12.5 mg cohort, 28-day treatment"}, "[6]": {"conditions": "25 mg cohort treated for 25 days"}}, "note": "“Also recorded” adds a separate entry of the source."}
{"molecule": "CC(C)n1c(=O)cc(N[C@@H](C)c2ccccc2)[nH]c1=O", "note": "[Compound 1, (S)-3-Isopropyl-6-((1-phenylethyl)amino) pyrimidine-2, 4(1H,3H)-dione]", "values": [{"measurement": "LV filling pressure and diastolic wall stress", "setting": "[1]; 15 mg/day, oHCM patients", "result": "improvement in LV filling pressure (reduced E/e′) and diastolic wall stress (reduced NTpro-BNP)"}, {"measurement": "LVOT gradient", "setting": "[1]; 15 mg/day, oHCM patients", "result": "eliminates LVOT gradient"}, {"measurement": "resting LV systolic function", "setting": "[1]; 15 mg/day, oHCM patients", "result": "decreases resting LV systolic function"}, {"measurement": "resting LVOT gradient", "setting": "[1]; 10, 15 or 20 mg, weeks 0 to 12", "result": "abolished as early as week 1 in most subjects and by week 2 in all subjects"}, {"measurement": "change in LVEF (stress ejection fraction)", "setting": "[1]; 10 or 15 mg, weeks 0, 4 and 12", "result": "minimal change"}, {"measurement": "stress LVOT gradient", "setting": "[1]; 10 or 15 mg, weeks 0, 4 and 12", "result": "abolished"}, {"measurement": "Resting LVEF Week 12", "setting": "[1]; Cohort A (10-15 mg/day), LVEF N = 4, mean ± SD, baseline 70 ± 6", "result": "54 ± 12", "unit": "%"}, {"measurement": "Post-exercise LVEF Week 12", "setting": "[1]; Cohort A (10-15 mg/day), LVEF N = 4, mean ± SD, baseline 76 ± 5", "result": "60 ± 22", "unit": "%"}, {"measurement": "Septal e′ Week 12", "setting": "[1]; Cohort A (10-15 mg/day), N = 10, mean ± SD, baseline 5 4 ± 1 6", "result": "6.4 ± 1.5", "unit": "cm/s"}, {"measurement": "Mean e′ Week 12", "setting": "[1]; Cohort A (10-15 mg/day), N = 10, mean ± SD, baseline 5.7 ± 1.2", "result": "7.4 ± 1.6", "unit": "cm/s"}, {"measurement": "Lateral e′ Week 12", "setting": "[1]; [3]", "result": "8.8 ± 1.6", "unit": "cm/s"}, {"measurement": "E/e′ Week 12", "setting": "[1]; [3]", "result": "9.1 ± 2.1"}, {"measurement": "Resting Gradient Week 12", "setting": "[1]; Cohort A (10-15 mg/day), N = 10, mean ± SD, baseline 68 ± 34", "result": "14 ± 25", "unit": "mm Hg"}, {"measurement": "Post-exercise Gradient Week 12", "setting": "[1]; Cohort A (10-15 mg/day), N = 10, mean ± SD, baseline 125 ± 60", "result": "19 ± 13", "unit": "mm Hg"}, {"measurement": "NT-pro BNP Week 12", "setting": "[1]; Cohort A (10-15 mg/day), N = 10, mean ± SD, baseline 939 ± 647", "result": "235 ± 417", "unit": "pg/mL"}, {"measurement": "E/e′ Delta", "setting": "[1]; Cohort A, baseline to Week 12, n 8", "result": "−3.6 ± 3.7"}, {"measurement": "Lateral e′ Delta", "setting": "[1]; Cohort A, baseline to Week 12, n 9", "result": "1.6 ± 1.9", "unit": "cm/s"}, {"measurement": "Dyspnea score Delta", "setting": "[1]; [4]", "result": "−3.1 ± 1.4"}, {"measurement": "LA Vol (index) Delta", "setting": "[1]; [4]", "result": "1 ± 7", "unit": "mL/m^2"}, {"measurement": "NT-proBNP Delta", "setting": "[1]; [4]", "result": "−459 ± 722"}, {"measurement": "LVEDV Delta", "setting": "[1]; Cohort A, baseline to Week 12, n 11", "result": "16 ± 21"}, {"measurement": "Dyspnea score Week 12", "setting": "[1]; Cohort A, baseline 4.9 ± 1.6, n 10", "result": "1.7 ± 1.8"}, {"measurement": "Lateral e′ Week 12", "setting": "[1]; Cohort A, n 9", "result": "8.7 ± 1.6", "unit": "cm/s"}, {"measurement": "E/e′ Week 12", "setting": "[1]; Cohort A, n 8", "result": "9.1 ± 2.2"}, {"measurement": "LA Vol (index) Week 12", "setting": "[1]; Cohort A, baseline 30 ± 10, n 10", "result": "31 ± 8", "unit": "mL/m^2"}, {"measurement": "LVEDV Week 12", "setting": "[1]; Cohort A, baseline 82 ± 24, n 11", "result": "97 ± 24"}, {"measurement": "NT-proBNP Week 12", "setting": "[1]; Cohort A, baseline 930 ± 647, n 10", "result": "454 ± 551"}, {"measurement": "dyspnea symptom score", "setting": "[1]; Day 1 to Week 16, dosing through week 12", "result": "improves with Compound 1 administration, returning after cessation of therapy; also recorded: improve"}, {"measurement": "resting LVEF versus Compound 1 concentration", "setting": "[1]; FIG. 8", "result": "exposure-dependent decrease"}, {"measurement": "increase in exercise capacity (pVO2) versus change in LVEF", "setting": "[1]; FIG. 14", "result": "greatest in patients with the least decrease in LVEF"}, {"measurement": "oHCM phenotype after cessation (resting LVOT gradient, resting LVEF)", "setting": "[1]; administration stopped after week 12", "result": "returns after cessation of Compound 1"}, {"measurement": "most robust improvements in pVO2", "setting": "[1]; associated with minimal change in resting LVEF", "result": "> 3", "unit": "mL/min/kg"}, {"measurement": "peak VO2 during CPET", "setting": "[1]; baseline versus week 12", "result": "improves CPET metric; also recorded: improve"}, {"measurement": "peak circulatory power during CPET", "setting": "[1]; baseline versus week 12", "result": "improves CPET metric; also recorded: improve"}, {"measurement": "tolerability", "setting": "[1]; doses up to 20 mg QD", "result": "well tolerated"}, {"measurement": "Compound 1 concentration associated with reduction of resting gradient below hemodynamic significance", "setting": "[1]; plasma", "result": "> 225", "unit": "ng/mL"}, {"measurement": "NT-proBNP levels", "setting": "[1]; weeks 0, 4, 8 and 12", "result": "reduced after 4 weeks of Compound 1 but can rebound with higher exposures"}, {"measurement": "NYHA Class", "setting": "[1]; with Compound 1 therapy", "result": "improve"}, {"measurement": "SAEs", "setting": "healthy volunteers", "result": "No SAEs reported"}, {"measurement": "severity of adverse events", "setting": "healthy volunteers", "result": "all mild to moderate"}, {"measurement": "number of AEs reported", "setting": "healthy volunteers; in 33 subjects", "result": 54}, {"measurement": "PD evidence of reduced contractility", "setting": "healthy adult subjects; 12.5 mg QD and 25 mg QD groups", "result": "PD evidence of reduced contractility was apparent"}, {"measurement": "Responders %", "setting": "healthy adult subjects; [5]", "result": 30, "unit": "%"}, {"measurement": "Responders n", "setting": "healthy adult subjects; [5]", "result": "3/10"}, {"measurement": "Responders n", "setting": "healthy adult subjects; 18.5 mg cohort, 28-day treatment", "result": "10/10"}, {"measurement": "Responders %", "setting": "healthy adult subjects; [6]", "result": 100, "unit": "%"}, {"measurement": "Responders n", "setting": "healthy adult subjects; [6]", "result": "10/10"}, {"measurement": "Responders %", "setting": "healthy adult subjects; 25 mg cohort, 28-day treatment", "result": 100, "unit": "%"}, {"measurement": "subjects with diarrhea and/or abdominal cramps", "setting": "healthy adult subjects; cohort 3, blinded treatment (Compound 1 12.5 mg or placebo QD)", "result": "3 of 12"}, {"measurement": "gastrointestinal AEs", "setting": "healthy adult subjects; cohort 4 (Compound 1 25 mg or placebo)", "result": "No gastrointestinal AEs were reported"}, {"measurement": "subjects achieving stopping criterion of ≥20% reduction in LVEF", "setting": "healthy adult subjects; cohort 4, blinded treatment (Compound 1 25 mg or placebo QD), dosing stopped on Day 25", "result": "5 of 12"}, {"measurement": "AE severity and SAEs", "setting": "healthy adult subjects; multiple doses up to 25 mg QD", "result": "All AEs were mild or moderate in severity, and there were no SAEs"}, {"measurement": "tolerability", "setting": "healthy adult subjects; multiple doses up to 25 mg QD, healthy adults", "result": "well tolerated"}, {"measurement": "activity against smooth muscle myosin", "setting": "smooth muscle myosin", "result": "biochemically inactive"}, {"measurement": "proof of mechanism: cardiac contractility", "setting": "[2]", "result": "dependent reduction in cardiac contractility"}]}
